Legend:
[1] = DRUGMATRIX: beta-Lactamase enzyme inhibition (substrate: Nitrocefin); design: species or system Bacillus cereus; conditions: Not Active = under 50% inhibition at 10 µM
Histamine H2 receptor = Histamine H2 receptor (Homo sapiens, UniProt P25021); type: cell membranes, CHO-K1, Membrane; conditions: cho-k1; further: in other assays of this panel Not Active means under 50% inhibition at 10 µM
[2] = DRUGMATRIX: Platelet-Derived Growth Factor (PDGF) radioligand binding (ligand: [125I] PDGF); type: cell-based; conditions: nih3t3; Not Active = under 50% inhibition at 10 µM
Cathepsin G = target: T1, Cathepsin G (Homo sapiens, UniProt P08311); type: tissue-based; conditions: neutrophil;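 further: inhibition of Cathepsin G enzyme activity, tested on an AMC-conjugated peptide substrate; in other assays of this panel Not Active means under 50% inhibition at 10 µM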
T1 sequence (P08311 whole entry): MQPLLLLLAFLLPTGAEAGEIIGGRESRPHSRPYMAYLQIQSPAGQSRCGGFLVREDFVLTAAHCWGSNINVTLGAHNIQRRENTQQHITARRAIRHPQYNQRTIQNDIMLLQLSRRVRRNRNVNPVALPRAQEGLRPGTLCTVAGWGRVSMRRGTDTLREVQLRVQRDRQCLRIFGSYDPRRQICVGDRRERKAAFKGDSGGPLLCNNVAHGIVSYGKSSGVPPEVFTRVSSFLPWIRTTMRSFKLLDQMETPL

[3] = target: Protein kinase C alpha type (Homo sapiens, UniProt P17252); type: cell-based; conditions: sf9;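 further: inhibition of PKCalpha kinase activity measured in an enzyme assay with histone as the phosphorylation substrate; in other assays of this panel Not Active means under 50% inhibition at 10 µM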
[4] = target: Tyrosine-protein kinase Lck (Homo sapiens, UniProt P06239); test: DRUGMATRIX: Protein Tyrosine Kinase, LCK enzyme inhibition (substrate: Poly(Glu:Tyr)); type: cell-based, Insect cells; conditions: insect cells; Not Active = under 50% inhibition at 10 µM
Cytochrome P450 2C19 = Cytochrome P450 2C19 (Homo sapiens, UniProt P33261); conditions: bti-tn-5b1-4; further: in other assays of this panel Not Active means under 50% inhibition at 10 µM
Cytochrome P450 2C19, sequence (P33261 whole entry): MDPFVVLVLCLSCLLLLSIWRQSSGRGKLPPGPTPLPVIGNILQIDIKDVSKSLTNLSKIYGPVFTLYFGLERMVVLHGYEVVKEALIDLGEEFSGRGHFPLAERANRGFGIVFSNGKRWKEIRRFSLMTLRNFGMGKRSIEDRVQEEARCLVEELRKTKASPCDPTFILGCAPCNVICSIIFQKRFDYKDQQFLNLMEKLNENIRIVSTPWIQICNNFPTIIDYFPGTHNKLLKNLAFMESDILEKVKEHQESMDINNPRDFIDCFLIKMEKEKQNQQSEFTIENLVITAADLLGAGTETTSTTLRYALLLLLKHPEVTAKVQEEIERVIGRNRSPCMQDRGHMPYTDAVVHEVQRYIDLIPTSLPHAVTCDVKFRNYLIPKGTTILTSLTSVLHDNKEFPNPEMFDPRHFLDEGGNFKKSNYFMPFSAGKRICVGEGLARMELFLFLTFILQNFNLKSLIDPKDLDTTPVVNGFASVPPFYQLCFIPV

Histamine H2 receptor, sequence (P25021 whole entry): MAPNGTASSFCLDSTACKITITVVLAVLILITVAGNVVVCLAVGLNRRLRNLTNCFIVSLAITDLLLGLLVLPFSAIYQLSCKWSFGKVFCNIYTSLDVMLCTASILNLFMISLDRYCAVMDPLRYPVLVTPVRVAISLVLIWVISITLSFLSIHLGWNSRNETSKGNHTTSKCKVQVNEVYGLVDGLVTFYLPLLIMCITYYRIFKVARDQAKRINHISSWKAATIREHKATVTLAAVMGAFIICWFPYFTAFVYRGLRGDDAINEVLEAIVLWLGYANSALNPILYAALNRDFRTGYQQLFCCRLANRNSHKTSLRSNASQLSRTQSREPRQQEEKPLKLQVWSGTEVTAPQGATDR
Tyrosine-protein kinase Lck, sequence (P06239 whole entry): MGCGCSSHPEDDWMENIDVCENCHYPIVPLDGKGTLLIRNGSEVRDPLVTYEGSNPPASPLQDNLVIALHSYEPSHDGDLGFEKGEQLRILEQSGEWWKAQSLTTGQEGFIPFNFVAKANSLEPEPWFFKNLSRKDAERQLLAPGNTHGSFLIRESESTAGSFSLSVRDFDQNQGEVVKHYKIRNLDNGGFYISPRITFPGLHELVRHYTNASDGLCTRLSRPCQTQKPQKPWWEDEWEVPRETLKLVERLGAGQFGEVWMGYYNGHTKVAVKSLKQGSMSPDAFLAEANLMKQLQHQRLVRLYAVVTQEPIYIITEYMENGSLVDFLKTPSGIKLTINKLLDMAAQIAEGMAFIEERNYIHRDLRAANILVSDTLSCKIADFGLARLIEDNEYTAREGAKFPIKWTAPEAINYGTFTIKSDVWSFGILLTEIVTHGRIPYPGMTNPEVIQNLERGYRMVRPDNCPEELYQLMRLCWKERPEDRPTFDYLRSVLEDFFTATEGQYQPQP

Cc1ccc(-c2cc(C(F)(F)F)nn2-c2ccc(S(N)(=O)=O)cc2)cc1 [CELECOXIB]
Not Active: IC50 [1] | Ki [1] | IC50 (Histamine H2 receptor) | IC50 [2] | Ki [2] | IC50 (Cathepsin G) | IC50 [3] | IC50 [4] | IC50 (Cytochrome P450 2C19) | Ki (Cytochrome P450 2C19)

c1ccc(Nc2ccc(Nc3ccccc3)cc2)cc1
Not Active: IC50 [1] | Ki [1] | IC50 (Histamine H2 receptor) | IC50 [2] | Ki [2] | IC50 (Cathepsin G) | IC50 [3] | IC50 [4] | IC50 (Cytochrome P450 2C19) | Ki (Cytochrome P450 2C19)

Cc1onc(-c2ccccc2Cl)c1C(=O)N[C@@H]1C(=O)N2[C@@H]1SC(C)(C)[C@@H]2C(=O)O [CLOXACILLIN]
Not Active: IC50 [1] | Ki [1] | IC50 (Histamine H2 receptor) | IC50 [2] | Ki [2] | IC50 (Cathepsin G) | IC50 [3] | IC50 [4] | IC50 (Cytochrome P450 2C19) | Ki (Cytochrome P450 2C19)

CC1=C2C(=CO[C@H](C)[C@H]2C)C(O)=C(C(=O)O)C1=O [CITRININ]
Not Active: IC50 [1] | Ki [1] | IC50 (Histamine H2 receptor) | IC50 [2] | Ki [2] | IC50 (Cathepsin G) | IC50 [3] | IC50 [4] | IC50 (Cytochrome P450 2C19) | Ki (Cytochrome P450 2C19)

CC(C)C(=O)Nc1ccc([N+](=O)[O-])c(C(F)(F)F)c1 [FLUTAMIDE]
Not Active: IC50 [1] | Ki [1] | IC50 (Histamine H2 receptor) | IC50 [2] | Ki [2] | IC50 (Cathepsin G) | IC50 [3] | IC50 [4] | IC50 (Cytochrome P450 2C19) | Ki (Cytochrome P450 2C19)

CC[C@@]1(O)C[C@H](O[C@H]2C[C@H](N(C)C)[C@H](O[C@H]3C[C@H](O)[C@H](O[C@H]4CCC(=O)[C@H](C)O4)[C@H](C)O3)[C@H](C)O2)c2c(cc3c(c2O)C(=O)c2c(O)cccc2C3=O)[C@H]1C(=O)OC [ACLARUBICIN]
Not Active: IC50 [1] | Ki [1] | IC50 (Histamine H2 receptor) | IC50 [2] | Ki [2] | IC50 (Cathepsin G) | IC50 [3] | IC50 [4] | IC50 (Cytochrome P450 2C19) | Ki (Cytochrome P450 2C19)

Nc1nc2c(ncn2CCC(CO)CO)c(=O)[nH]1 [PENCICLOVIR]
Not Active: IC50 [1] | Ki [1] | IC50 (Histamine H2 receptor) | IC50 [2] | Ki [2] | IC50 (Cathepsin G) | IC50 [3] | IC50 [4] | IC50 (Cytochrome P450 2C19) | Ki (Cytochrome P450 2C19)

O=c1oc2ccccc2c(O)c1Cc1c(O)c2ccccc2oc1=O [DICUMAROL]
Not Active: IC50 [1] | Ki [1] | IC50 (Histamine H2 receptor) | IC50 [2] | Ki [2] | IC50 (Cathepsin G) | IC50 [3] | IC50 [4] | IC50 (Cytochrome P450 2C19) | Ki (Cytochrome P450 2C19)

Reference: ChEMBL document CHEMBL1909046, “DrugMatrix in vitro pharmacology data”
